Assay results published in patent US12448393B2, “Use of novel compound, for preventing, improving or treating amyotrophic lateral sclerosis” (PRG S&TECH INC., priority 2019, dated 2025).
Entries after “also recorded” stand apart in the source; their conditions may differ.

Key:
SOD1 [1] = assay: Western blot / native gel analysis of SOD1 aggregation; format: cell-based, human; settings: Table 1; effect on SOD1 aggregation, native / non-SDS-PAGE gel
Procedure: Using RIPA buffer (50 mM Tris-Cl, pH 7.5, 150 mM NaCl, 1% NP-40, 0.1% SDS and […]) for SDS-PAGE and lysis buffer (50 mM Tris-Cl, pH 7.5, 150 mM NaCl, 0.3% NP-40) for Native-PAGE, proteins were extracted from cells. Samples were separated by the SDS-PAGE or the Native-PAGE and transferred to PVDF membrane. Blotted membrane was blocked with TBST buffer including 3% skim milk for 1 hour, and reacted with specific antibodies. The reacted antibodies were detected by ECL and X-ray film exposure. Antibodies used in the present disclosure are as follows: pan-SOD1 (GTX100554) was purchased from Genetex (California, USA). Misfolded SOD1-specific antibody (B8H10) was purchased from MediMabs (Montreal, Canada). Actin (sc-1616), GST (sc-138), and GFP (Green fluorescent protein; sc-8036) were purchased from Santa Cruz biotechnology (Santa Cruz, CA, USA). TDP-43 antibody (10782-2-AP) was purchased from Proteintech (Rosemont, IL, USA). Anti-FLAG (Sigma; F3165) was purchased from Sigma Aldrich (St, Louis, Mo, USA), and HRP-conjugated goat anti-mouse, goat anti-rabbit, and mouse anti-goat antibodies (Pierce, Thermo Fisher Scientific, Inc., Rockford, IL, USA) were used as secondary antibodies.
(§1) GFP-SOD1 (WT, G85R, G93A), non-tagged SOD1 (WT, A4V, G37R, G85R, G93A) and tdTomato-TDP43 expression vectors were purchased from Addgene (Cambridge, MA, USA). Transfection was performed using Jet-PEI reagent (JetPEI; Polyplus transfection, New York, NY, USA) according to the manufacturer's protocol. Briefly, vectors were mixed with JetPEI reagent in 150 mM NaCl buffer, and then mixture was reacted for 15 minutes. The mixture was added to cells in serum-free medium and reacted for 4 hours. After reaction, the cells were replaced with a culture medium supplemented with 10% FBS.

SOD1 [2] = assay: Immunofluorescence staining of SOD1 aggregation and misfolded SOD1; format: cell-based, human; settings: Table 1; IF staining of SOD1
Procedure: Cells on coverslip were washed with PBS, fixed with 4% PFA at room temperature for 30 minutes, and then infiltrated with 0.1% Triton X-100/PBS for 10 minutes. The cells were treated with blocking solution (anti-Human Antibody 1:500 dilution in PBS) for 1 hour, and then cells were reacted with anti-pan SOD1 (1:400 dilution), misfolded SOD1 (B8H10; 1:200 dilution in blocking solution) at 4° C. overnight. Finally, the cells were reacted with FITC and rhodamine-conjugated secondary antibody at 4° C. for 6 hours. Nuclei were stained with 4,6-diamidino-2-phenylindole (DAPI), and endoplasmic reticula (ERs) were stained with ER-Tracker Red dye for 10 minutes. The cells were washed 3 times with PBS, and then coverslips were mounted with mounting solution [H-5501; Vector Laboratories (Burlingame, CA, USA)] and analyzed by fluorescence microscopy (Zeiss).
as §1

[3] = tested on: WT-SOD1 and mutant SOD1-GST (A4V, G37R, G85R, G93A); assay: ELISA compound screening for binding inhibitor between WT-SOD1 and mutant SOD1; parameters: species or system human; settings: Table 1; compounds at final concentration of 50 μM
Procedure: For compound screening, the present inventors applied an ELISA assay system. To select a binding inhibitor between WT-SOD1 and mutant SOD1, the present inventors used 0.5% paraformaldehyde (PFA) to fix WT-SOD1 recombinant protein on a 96-well plate. The plate was dried, washed with phosphate-buffered saline (PBS), and reacted with the compounds at a final concentration of 50 μM, and then mutant SOD1-GST (A4V, G37R, G85R, G93A) proteins were added. After 2 hours of reaction, the 96-well plate was washed with PBS and blocked with 3% skim milk to prevent non specific reaction. The plate was reacted with anti-GST antibody (diluted at 1:10,000) for 1 hour, and then reacted with anti-mouse IgG-HRP (diluted at 1:50,000) for 1 hour. After washing twice, the plate was reacted with a 3,3′,5,5′-tetramethylbenzidine (TMB) solution (Calbiochem) for 30 minutes and a stop solution (1N H2SO4) for 30 minutes. Finally, the present inventors analyzed values using an ELISA reader (450 nm absorbance). Negative control (−; red line) was reacted without mutant SOD1, and positive control (+; blue line) was reacted with mutant SOD1 without the compounds.
To prepare recombinant proteins, human SOD1 (WT, A4V, G37R, G85R, G93A) was added to EcoRI and HindIII sites of pGEX-TEV vector, an improved vector made by adding a TEV protease cleavage site to pGEX-4T1 (Invitrogen). The recombinant proteins were expressed as GST-fusion proteins in Escherichia coli (E. coli) strain BL21 (DE3). The proteins were purified by glutathione-affinity chromatography.

SOD1^G93A-Tg mice = assay: In vivo drug treatment of ALS model mice (grip strength, behaviour, histology, survival); parameters: species or system mouse; settings: for effects in ALS model mice: FIGS. 11A and 11B, summary statements; for In vivo: Table 1, ALS model mice
Procedure: An experiment was performed in a facility approved by the Association for Laboratory Animal Care Assessment and Accreditation in accordance with the animal policy approved by Busan National University. B6SJL-Tg (SOD1^G93A) mice were purchased from Jackson Laboratory (Stock No: 002726). All mice were maintained under temperature and light-controlled conditions (20˜23° C., light-dark cycle 12 hr-12 hr) and were provided with sterile food and water.
Vehicle (DMSO) and SLC-B036 (10 mg/kg, 20 mg/kg) were administered to 12-week-old or 14-week-old SOD1^G93A mice via intraperitoneal injection twice weekly for 6 weeks. Control mice were treated under the same conditions. For histological analysis, mice were sacrificed at 18 weeks. After dissection of mice, spinal cord was fixed with 4% paraformaldehyde for 48 hours according to basic tissue processing procedures, and embedded in a paraffin block. An embedded tissue (cervical region of the spinal cord) was cut into 5 μm with a Leica microtome, and transferred to an adhesive-coated slide (Marienfeld laboratory glassware, Germany). After deparaffinization and rehydration, the slide was stained with hematoxylin and eosin to determine the number of spinal nerves.
For behavioral experiment, grip strength was checked every 2 weeks using a grip strength meter. The mice were allowed to grasp a tension bar with their forelimbs, and then their tails were slowly pulled until they released the bar. To observe motility, respiration, and quadriplegia of the mice, image analysis was performed at the end of administration (18-20 weeks).

normal human fibroblasts = assay: Cell viability measurement (MTT), normal fibroblasts; format: cell-based; settings: for cytotoxic effect in normal fibroblasts: MTT, FIG. 4E, FIG. 9B; for Toxicity (MTT): Table 1, cell type not given, neurons (FIG. 9A) and normal fibroblasts (FIG. 9B)
Procedure: (§2) HEK293 cells were purchased from American Type Culture Collection (ATCC, Manassas, VA, USA) and maintained at 37° C. and 5% CO2 in DMEM liquid medium including 10% fetal bovine serum and 1% penicillin-streptomycin. SK—N—SH cells were purchased from Korean Cell Line Bank (KCLB, Seoul, South Korea) and maintained in MEM medium including 10% fetal bovine serum, 1% antibiotic, 25 mM HEPES, and 300 mg/L L-Glu. Human fibroblasts (person) were purchased from Coriell Cell Repositories (New Jersey, USA) and maintained in EMEM including 15% FBS, 2 mM Glutamine, and 26 mM HEPES without antibiotics. Thapsigargin (ER calcium scavenger: CAS 67526-95-8) was purchased from Calbiochem (Darmstadt, Germany). CoCl2 (hypoxia-inducer: C8661) was purchased from Sigma Aldrich (St, Louis, Mo, USA).
(§3) To check cells viability, the cells were reacted with 0.5 mg/ml MTT solution (475989; Merck, Darmstadt, Germany) at 37° C. for 4 hours. After removing residual solution and washing with PBS, precipitate was dissolved in 200 μl DMSO, and quantified by measuring absorbance at 540 nm.

neurons = assay: Cell viability measurement (MTT), neurons; format: cell-based; settings: FIG. 9A
Procedure: as §2, §3

[4] = Pharmacokinetics (PK) analysis; format: in vivo; settings: for PK study BA: Table 1

COc1cc(/C=C/CO[C@H]2Cc3cc4ccc(=O)oc4cc3OC2(C)C)ccc1O [PRG-A-02, (S,E)-7-((3-(4-hydroxy-3-methoxyphenyl)allyl)oxy)-8,8-dimethyl-7,8-dihydro-2H,6H-pyrano[3,2-g]chromen-2-one]
Western Blot (SOD1 [1]): Effect ○
Immuno-fluorscence (SOD1 [2]): Effect ○
ELISA [3]: Effect ○
effects in ALS model mice (SOD1^G93A-Tg mice): good effects
In vivo (SOD1^G93A-Tg mice): Effect ○
cytotoxic effect in normal fibroblasts (normal human fibroblasts): did not exhibit cytotoxicity
Toxicity (MTT) (normal human fibroblasts): No
cytotoxicity in neurons (neurons): did not exhibit cytotoxicity
PK study BA [4]: (0.3%)

COc1cc(/C=C/CO[C@H]2Cc3cc4ccc(=O)oc4cc3OC2(C)C)ccc1[N+](=O)[O-] [PRG-A-04, (S,E)-7-((3-(3-methoxy-4-nitrophenyl)allyl)oxy)-8,8-dimethyl-7,8-dihydro-2H,6H-pyrano[3,2-g]chromen-2-one]
Western Blot (SOD1 [1]): Effect ○
Immuno-fluorscence (SOD1 [2]): Effect ○
ELISA [3]: Effect ○
effects in ALS model mice (SOD1^G93A-Tg mice): Excellent effects; also recorded: good effects
In vivo (SOD1^G93A-Tg mice): Effect ○
cytotoxic effect in normal fibroblasts (normal human fibroblasts): did not exhibit cytotoxicity
Toxicity (MTT) (normal human fibroblasts): No
cytotoxicity in neurons (neurons): did not exhibit cytotoxicity
PK profile ([4]; FIG. 10): appropriate PK profile
PK study BA [4]: 60.7%

CC1(C)Oc2cc3oc(=O)ccc3cc2C[C@@H]1OC(=O)/C=C/c1ccc(F)cc1 [PRG-A-03, (S)-8,8-dimethyl-2-oxo-7,8-dihydro-2H,6H-pyrano[3,2-g]chromen-7-yl (E)-3-(4-fluorophenyl) acrylate]
Western Blot (SOD1 [1]): Effect ○
Immuno-fluorscence (SOD1 [2]): Effect ○
ELISA [3]: Effect ○
effects in ALS model mice (SOD1^G93A-Tg mice): good effects
In vivo (SOD1^G93A-Tg mice): Effect ○
cytotoxic effect in normal fibroblasts (normal human fibroblasts): did not exhibit cytotoxicity
Toxicity (MTT) (normal human fibroblasts): No
cytotoxicity in neurons (neurons): did not exhibit cytotoxicity
PK study BA [4]: (3.7%)
